Laboratory results: ChEMBL document CHEMBL1268858, “Cytotoxic Hexacyclic Triterpene Acids from Euscaphis japonica” (J Nat Prod, 2010)

Legend:
[1] = test system: HT-29; experiment: Cytotoxicity against human HT-29 cells at 10 uM after 48 hrs; format: functional
[2] = test system: CCRF-CEM; experiment: Cytotoxicity against human CEM cells at 10 uM after 48 hrs; format: functional
[3] = test system: MCF7; experiment: Cytotoxicity against human MCF7 cells at 10 uM after 48 hrs; format: functional
[4] = test system: NCI-H460; experiment: Cytotoxicity against human NCI-H460 cells at 10 uM after 48 hrs; format: functional
[5] = Cytotoxicity against human fibroblast cells at 10 uM after 48 hrs; format: cell-based
[6] = test system: NCI-H460; experiment: Cytotoxicity against human NCI-H460 cells after 48 hrs; format: functional, cell-based; details: NCI-H460, 48 h
[7] = test system: HT-29; experiment: Cytotoxicity against human HT-29 cells after 48 hrs; format: functional, cell-based; details: HT-29, 48 h
[8] = test system: MCF7; experiment: Cytotoxicity against human MCF7 cells after 48 hrs; format: functional, cell-based; details: MCF7, 48 h
[9] = test system: CCRF-CEM; experiment: Cytotoxicity against human CEM cells after 48 hrs; format: functional, cell-based

SMILES | Activity [1] [%] | Activity [2] [%] | Activity [3] [%] | Activity [4] [%] | Activity [5] [%] | IC50 [6] [µM] | IC50 [7] [µM] | IC50 [8] [µM] | IC50 [9] [µM]
C[C@@H]1CC[C@]2(C(=O)O)CC[C@]3(C)C(=CC[C@@H]4[C@@]5(C)C[C@H](O)[C@H](O)C(C)(C)[C@@H]5CC[C@]43C)[C@@H]2[C@]1(C)O | 74 | 73 | 70 | 78 | 107 | – | – | – | –
C[C@@H]1CC[C@]2(C(=O)O)CC[C@]3(C)C(=CC[C@@H]4[C@@]5(C)CC[C@H](O)[C@@](C)(C=O)[C@@H]5CC[C@]43C)[C@@H]2[C@]1(C)O | 91 | 88 | 93 | 103 | 99 | – | – | – | –
C[C@H]1[C@H](C)CC[C@]2(C(=O)O)CC[C@]3(C)C(=CC[C@@H]4[C@@]5(C)C[C@@H](O)[C@H](O)C(C)(C)[C@@H]5CC[C@]43C)[C@H]12 [COROSOLIC ACID] | 68 | 33 | 75 | 89 | 109 | > 10 | > 10 | > 10 | 3.27
COc1cccc2c1C(=O)c1c(O)c3c(c(O)c1C2=O)C[C@@](O)(C(=O)CO)C[C@@H]3O[C@H]1C[C@H](N)[C@H](O)[C@H](C)O1 [DOXORUBICIN] | – | – | – | – | – | 6.06 | 6.4 | – | 3.14
C[C@@H]1CC[C@]2(C(=O)O)CC[C@]34C[C@]3(C=C[C@@H]3[C@@]5(C)CC[C@H](O)C(C)(C)[C@@H]5CC[C@]34C)[C@@H]2[C@]1(C)O [EUSCAPHIC ACID A] | 87 | 83 | 85 | 62 | 100 | – | – | – | –
C[C@@H]1CC[C@]2(C(=O)O)CC[C@]34C[C@]3(C=C[C@@H]3[C@@]5(C)CC[C@H](O)[C@@](C)(CO)[C@@H]5CC[C@]34C)[C@@H]2[C@]1(C)O [EUSCAPHIC ACID B] | 93 | 80 | 84 | 99 | 109 | – | – | – | –
C[C@@H]1CC[C@]2(C(=O)O)CC[C@]34C[C@]3(C=C[C@@H]3[C@@]5(C)C[C@@H](O)[C@@H](O)C(C)(C)[C@@H]5CC[C@]34C)[C@@H]2[C@]1(C)O [EUSCAPHIC ACID C] | 1 | 19 | 10 | 6 | 119 | 2.54 | 14.3 | 15.7 | 65.3
C[C@@H]1CC[C@]2(C(=O)O)CC[C@]34C[C@]3(C=C[C@@H]3[C@@]5(C)C[C@@H](O)[C@H](O)C(C)(C)[C@@H]5CC[C@]34C)[C@@H]2[C@]1(C)O [EUSCAPHIC ACID D] | 13 | 55 | 41 | 24 | 111 | 13.3 | 34.8 | 3.61 | 8.99
C[C@H]1[C@H](C)CC[C@]2(C(=O)O)CC[C@]34C[C@]3(C=C[C@@H]3[C@@]5(C)C[C@@H](O)[C@H](O)C(C)(C)[C@@H]5CC[C@]34C)[C@H]12 [EUSCAPHIC ACID E] | 86 | 87 | 90 | 91 | 110 | – | – | – | –
C=C1[C@H](C)CC[C@]2(C(=O)O)CC[C@]34C[C@]3(C=C[C@@H]3[C@@]5(C)C[C@@H](O)[C@H](O)C(C)(C)[C@@H]5CC[C@]34C)[C@H]12 [EUSCAPHIC ACID F] | 87 | 86 | 76 | 81 | 115 | – | – | – | –
C[C@@H]1CC[C@]2(C(=O)O)CC[C@]3(C)C(=CC[C@@H]4[C@@]5(C)C[C@@H](O)[C@@H](O)C(C)(C)[C@@H]5CC[C@]43C)[C@@H]2[C@]1(C)O [EUSCAPHIC ACID] | 85 | 89 | 85 | 104 | 95 | – | – | – | –
C[C@@H]1CC[C@]2(C(=O)O)CC[C@]3(C)C(=CC[C@@H]4[C@@]5(C)CC[C@H](O)C(C)(C)[C@@H]5CC[C@]43C)[C@@H]2[C@]1(C)O [POMOLIC ACID] | 91 | 92 | 79 | 82 | 93 | – | – | – | –
C[C@@H]1CC[C@]2(C(=O)O)CC[C@]3(C)C(=CC[C@@H]4[C@@]5(C)CC[C@H](O)[C@@](C)(CO)[C@@H]5CC[C@]43C)[C@@H]2[C@]1(C)O [ROTUNDIC ACID] | 101 | 106 | 78 | 85 | 92 | – | – | – | –
C[C@@H]1CC[C@]2(C(=O)O)CC[C@]3(C)C(=CC[C@@H]4[C@@]5(C)CC[C@H](O)[C@](C)(CO)[C@@H]5CC[C@]43C)[C@@H]2[C@]1(C)O [ROTUNGENIC ACID] | 91 | 97 | 98 | 106 | 99 | – | – | – | –
C[C@@H]1CC[C@]2(C(=O)O)CC[C@]3(C)C(=CC[C@@H]4[C@@]5(C)C[C@@H](O)[C@H](O)C(C)(C)[C@@H]5CC[C@]43C)[C@@H]2[C@]1(C)O [TOMENTIC ACID] | 86 | 93 | 85 | 88 | 114 | – | – | – | –
